These compounds were tested against LRRK2 (Homo sapiens (Human), UniProt Q5S007, G2019S) (assay: In Vitro LRRK2 LabChip Assay (LRRK2 Ki)).
Type: biochemical
Experimental: In Vitro LRRK2 LabChip Assay
This assay was used to determine a compound's potency in inhibiting activity of LRRK2 by determining, Kiapp, IC50, or percent inhibition values. In a polypropylene plate, LRRK2, fluorescently-labeled peptide substrate, ATP and test compound were incubated together. Using a LabChip 3000 (Caliper Life Sciences), after the reaction the substrate was separated by capillary electrophoresis into two populations: phosphorylated and unphosphorylated. The relative amounts of each were quantitated by fluorescence intensity. LRRK2 Ki was determined according to the equation: Y=V0*(1−((x+Ki*(1+S/Km)+Et)/(2*Et)−(((x+Ki*(1+S/Km)+Et)^2−(4*Et*x))^0.5)/(2*Et))). Ki values in Table 4 and elsewhere herein are shown in μM.
Assay conditions and materials used were as follows:
Kinase reaction time: 2 hours
Wild type in 5 mM MgCl2: 80 μM
Solid Support: Black 50 μL volume polypropylene 384 well plate (MatriCal cat #MP101-1-PP)
Non-binding plate: 384 well clear V-bottom polypropylene plates (Greiner cat #781280).
ATP: 10 mM ATP (Cell Signaling cat #9804).
Coating Reagent #3: Coating Reagent #3 (Caliper).
Complete Reaction Buffer: H2O/25 mM Tris, pH 8.0/5 mM MgCl2/2 mM DTT/0.01% Triton X-100.
Stop Solution: H2O/100 mM HEPES, pH 7.2/0.015% Brij-35/0.2% Coating Reagent #3/20 mM EDTA.
Separation Buffer: H2O/100 mM HEPES, pH 7.2/0.015% Brij-35/0.1% Coating Reagent #3/1:200 Coating Reagent #8/10 mM EDTA/5% DMSO.
Compound Plate Preparation:
For serial dilutions, 34.6 μl DMSO was added to columns 3-24. For the assay controls, 37.5 μl DMSO was added to columns 1 and 2 of rows A and P. a,d and 50 μl 25 μM G-028831 (Staurosporine) was added to columns 1 and 2, row B. For the samples: to start at 100 μM, 37.5 μl DMSO was to columns 1 and 2, then 12.5 μl 10 mM compound; to start at 10 μM, 78 μl DMSO was added to columns 1 & 2, then 2 μl 10 mM compound; and to start at 1 μM, 25 μM compound (2 μl 10 mM cmpd+798 μl DMSO) was added to empty columns 1 and 2. A Precision instrument was used to perform 1:3.16 serial dilutions (“PLK_BM_serial_halflog”).
ATP was diluted to 282.1 μM in Complete Kinase Buffer (final concentration was 130 μM).
Total and Blank Preparation:
In Complete Reaction Buffer, substrate was diluted to 4 μM. Equal volumes of Complete Reaction Buffer and 4 μM substrate were combined to obtain the blank. Equal volumes of Complete Reaction Buffer and 4 μM substrate were combined and to the combined solution was added 2× final LRRK2 concentration.
To a 50 μl polypropylene plate, 5 μl/well buffer/substrate was added by hand to Blank wells. A Biomek FX was used to start the kinase reaction (“PLK SAR 23 ATP”). The following were added to the appropriate wells:
5 μl/well compound/ATP in Assay Plate;
5 μl/well kinase/substrate in Assay Plate;
The plate was incubated for 2 hours in the dark. Biomek FX was used to stop the kinase reaction (“PLK Stop”), and 10 μl/well Stop solution was added to the Assay Plate. Results were read on the LabChip 3000.
The LabChip 3000 was run using the job “LRRK2 IC50” with the following job settings:
Downstream voltage: −500 V
Upstream voltage: −2350 V
Post sample buffer sip time: 75 seconds
Post dye buffer sip time: 75 seconds
Final delay time: 200 seconds

LRRK2, sequence (Q5S007 970-2527 G2019S): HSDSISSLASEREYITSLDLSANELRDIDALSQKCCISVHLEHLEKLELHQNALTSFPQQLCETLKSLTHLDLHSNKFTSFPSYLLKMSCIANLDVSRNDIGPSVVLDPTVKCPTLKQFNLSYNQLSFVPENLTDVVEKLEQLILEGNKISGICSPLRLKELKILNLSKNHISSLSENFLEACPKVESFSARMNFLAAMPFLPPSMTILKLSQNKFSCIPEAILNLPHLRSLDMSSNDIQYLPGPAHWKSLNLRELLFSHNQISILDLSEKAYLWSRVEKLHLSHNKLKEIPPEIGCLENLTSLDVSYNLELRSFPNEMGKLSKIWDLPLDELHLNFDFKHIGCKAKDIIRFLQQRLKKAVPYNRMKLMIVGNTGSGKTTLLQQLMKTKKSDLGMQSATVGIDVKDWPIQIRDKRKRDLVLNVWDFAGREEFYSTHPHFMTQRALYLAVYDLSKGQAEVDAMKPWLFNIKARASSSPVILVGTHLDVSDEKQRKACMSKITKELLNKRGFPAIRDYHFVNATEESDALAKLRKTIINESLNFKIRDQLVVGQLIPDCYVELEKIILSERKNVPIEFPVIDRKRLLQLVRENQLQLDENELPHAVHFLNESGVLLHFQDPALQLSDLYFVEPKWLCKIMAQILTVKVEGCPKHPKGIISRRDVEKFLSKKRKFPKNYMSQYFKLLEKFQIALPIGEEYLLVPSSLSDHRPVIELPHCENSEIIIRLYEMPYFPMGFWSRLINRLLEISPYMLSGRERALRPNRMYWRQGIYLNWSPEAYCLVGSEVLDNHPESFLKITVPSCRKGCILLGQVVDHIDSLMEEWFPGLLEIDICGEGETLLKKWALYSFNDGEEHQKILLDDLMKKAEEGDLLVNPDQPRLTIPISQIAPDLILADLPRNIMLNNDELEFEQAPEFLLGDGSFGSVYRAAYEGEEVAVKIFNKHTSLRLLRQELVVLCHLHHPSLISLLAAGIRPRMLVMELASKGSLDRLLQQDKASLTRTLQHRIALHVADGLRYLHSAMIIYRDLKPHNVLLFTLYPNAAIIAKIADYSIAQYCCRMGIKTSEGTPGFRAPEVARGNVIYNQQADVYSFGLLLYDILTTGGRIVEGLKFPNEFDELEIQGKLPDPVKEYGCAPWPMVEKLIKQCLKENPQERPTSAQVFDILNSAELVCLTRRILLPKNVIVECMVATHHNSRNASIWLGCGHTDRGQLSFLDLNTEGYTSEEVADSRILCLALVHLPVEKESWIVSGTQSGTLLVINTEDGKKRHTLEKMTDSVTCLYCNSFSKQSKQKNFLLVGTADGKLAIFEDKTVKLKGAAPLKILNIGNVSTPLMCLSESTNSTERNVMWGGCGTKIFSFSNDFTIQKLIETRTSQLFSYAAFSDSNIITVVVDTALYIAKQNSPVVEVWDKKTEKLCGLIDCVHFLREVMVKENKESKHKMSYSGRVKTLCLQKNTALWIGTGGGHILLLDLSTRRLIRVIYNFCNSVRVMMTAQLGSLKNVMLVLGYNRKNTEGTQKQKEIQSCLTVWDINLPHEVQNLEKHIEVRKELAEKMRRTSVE

SMILES	Ki [nM]
CNc1nc(Nc2ccc(N3CCOCC3)cc2OC)ncc1Cl [Example 24, 5-chloro-N2-(2-methoxy-4-morpholinophenyl)-N4-methylpyrimidine-2,4-diamine]	9
CNc1nc(Nc2cc(F)c(C#N)cc2OC)ncc1C(F)(F)F [Example 3, 2-Fluoro-5-methoxy-4-(4-(methylamino)-5-(trifluoromethyl)pyrimidin-2-ylamino)benzonitrile]	22
CNc1nc(Nc2cc(F)c(CN3CCOCC3)cc2OC)ncc1C(F)(F)F [Example 37, N2-(5-fluoro-2-methoxy-4-(morpholinomethyl)phenyl)-N4-methyl-5-(trifluoromethyl)pyrimidine-2,4-diamine]	56
CNc1nc(Nc2ccc(S(C)(=O)=O)cc2Cl)ncc1Cl [Example 8, 5-Chloro-N2-(2-chloro-4-methanesulfonyl-phenyl)-N4-methyl-pyrimidine-2,4-diamine]	8
CCNc1nc(Nc2cc(F)c(CN3CCOCC3)cc2OC)ncc1C#N [Example 12, 4-Ethylamino-2-(5-fluoro-2-methoxy-4-morpholin-4-ylmethyl-phenylamino)-pyrimidine-5-carbonitrile]	14
CNc1nc(Nc2cc(Cl)c(C(=O)O)cc2OC)ncc1Cl [Example 29, 2-chloro-4-(5-chloro-4-(methylamino)pyrimidin-2-ylamino)-5-methoxybenzoic acid]	36
CNc1nc(Nc2cc(C)c(C#N)cc2OC)ncc1C(F)(F)F [Example 13, 5-Methoxy-2-methyl-4-(4-methylamino-5-trifluoromethyl-pyrimidin-2-ylamino)-benzonitrile]	12
CNc1nc(Nc2cc(F)c(CN3CCOCC3)cc2OCCF)ncc1C(F)(F)F [Example 21, N2-[5-Fluoro-2-(2-fluoro-ethoxy)-4-morpholin-4-ylmethyl-phenyl]-N4-methyl-5-trifluoromethyl-pyrimidine-2,4-diamine]	4
CNc1nc(Nc2ccc(S(C)(=O)=O)cc2Cl)ncc1C(F)(F)F [Example 7, N2-(2-Chloro-4-methanesulfonyl-phenyl)-N4-methyl-5-trifluoromethyl-pyrimidine-2,4-diamine]	8
CNc1nc(Nc2cc(F)c(N3CCCC3=O)cc2OC)ncc1C(F)(F)F [Example 30, 1-(2-fluoro-5-methoxy-4-(4-(methylamino)-5-(trifluoromethyl)pyrimidin-2-ylamino)phenyl)pyrrolidin-2-one]	3
CNc1nc(Nc2cc(F)c(N3CCOCC3=O)cc2OC)ncc1C(F)(F)F [Example 31, 4-(2-fluoro-5-methoxy-4-(4-(methylamino)-5-(trifluoromethyl)pyrimidin-2-ylamino)phenyl)morpholin-3-one]	3
CNc1nc(Nc2ccc(C(F)(F)F)cc2OC)ncc1C(F)(F)F [Example 27, N2-(2-methoxy-4-(trifluoromethyl)phenyl)-N4-methyl-5-(trifluoromethyl)pyrimidine-2,4-diamine]	23
CNc1nc(Nc2ccc(S(C)(=O)=O)cc2OC(C)C)ncc1C(F)(F)F [Example 16, N2-(2-Isopropoxy-4-methanesulfonyl-phenyl)-N4-methyl-5-trifluoromethyl-pyrimidine-2,4-diamine]	17
CNc1nc(Nc2cc(F)c(CN3CCOCC3)cc2OC)ncc1C#N [Example 11, 2-(5-Fluoro-2-methoxy-4-morpholin-4-ylmethyl-phenylamino)-4-methylamino-pyrimidine-5-carbonitrile]	27
CNc1nc(Nc2ccc(S(C)(=O)=O)cc2OCCF)ncc1C(F)(F)F [Example 19, N2-[2-(2-Fluoro-ethoxy)-4-methanesulfonyl-phenyl]-N4-methyl-5-trifluoromethyl-pyrimidine-2,4-diamine]	3
CNc1nc(Nc2ccc(CN3CCOCC3)cc2OC)ncc1C(F)(F)F [Example 9, N2-(2-Methoxy-4-morpholin-4-ylmethyl-phenyl)-N4-methyl-5-trifluoromethyl-pyrimidine-2,4-diamine]	3
CNc1nc(Nc2ccc(C(=O)O)cc2OC)ncc1Cl [Example 25, 4-(5-chloro-4-(methylamino)pyrimidin-2-ylamino)-3-methoxybenzoic acid]	7
CCS(=O)(=O)c1cc(OC)c(Nc2ncc(C(F)(F)F)c(NC)n2)cc1C [Example 35, N2-(4-(ethylsulfonyl)-2-methoxy-5-methylphenyl)-N4-methyl-5-(trifluoromethyl)pyrimidine-2,4-diamine]	3
CNc1nc(Nc2ccc(C(F)(F)F)cc2OC)ncc1Cl [Example 28, 5-chloro-N2-(2-methoxy-4-(trifluoromethyl)phenyl)-N4-methylpyrimidine-2,4-diamine]	35
CNc1nc(Nc2cc(C)c(C#N)cc2Cl)ncc1C(F)(F)F [Example 10, 5-Chloro-2-methyl-4-(4-methylamino-5-trifluoromethyl-pyrimidin-2-ylamino)-benzonitrile]	46
CNc1nc(Nc2ccc(C#N)cc2OC)ncc1C(F)(F)F [Example 4, 3-Methoxy-4-(4-(methylamino)-5-(trifluoromethyl)pyrimidin-2-ylamino)benzonitrile]	8
CNc1nc(Nc2ccc(S(C)(=O)=O)cc2OCCF)ncc1Cl [Example 17, 5-Chloro-N2-[2-(2-fluoro-ethoxy)-4-methanesulfonyl-phenyl]-N4-methyl-pyrimidine-2,4-diamine]	12

The remaining compounds from weak to strong by Ki, led by results:

Ki [nM]	SMILES
3	CNc1nc(Nc2cc(F)c(C3COC3)cc2OC)ncc1C(F)(F)F [Example 33, N2-(5-fluoro-2-methoxy-4-(oxetan-3-yl)phenyl)-N4-methyl-5-(trifluoromethyl)pyrimidine-2,4-diamine]
3	CCNc1nc(Nc2ccc(S(C)(=O)=O)c3c2OCCO3)ncc1C(F)(F)F [Example 38, N4-ethyl-N2-(8-(methylsulfonyl)-2,3-dihydrobenzo[b][1,4]dioxin-5-yl)-5-(trifluoromethyl)pyrimidine-2,4-diamine]
3	CNc1nc(Nc2cc(C)c(S(C)(=O)=O)cc2OC)ncc1C(F)(F)F [Example 36, N2-(2-methoxy-5-methyl-4-(methylsulfonyl)phenyl)-N4-methyl-5-(trifluoromethyl)pyrimidine-2,4-diamine]
3	CNc1nc(Nc2cc(F)c(S(C)(=O)=O)cc2OC)ncc1C(F)(F)F [Example 15, N2-(5-Fluoro-4-methanesulfonyl-2-methoxy-phenyl)-N4-methyl-5-trifluoromethyl-pyrimidine-2,4-diamine]
2	CNc1nc(Nc2ccc(S(C)(=O)=O)cc2OC)ncc1C(F)(F)F [Example 1, N2-(2-Methoxy-4-(methylsulfonyl)phenyl)-N4-methyl-5-(trifluoromethyl)pyrimidine-2,4-diamine]
2	CCNc1nc(Nc2cc(F)c(CN3CCOCC3)cc2OCCF)ncc1C(F)(F)F [Example 22, N4-Ethyl-N2-[5-fluoro-2-(2-fluoro-ethoxy)-4-morpholin-4-ylmethyl-phenyl]-5-trifluoromethyl-pyrimidine-2,4-diamine]
2	CNc1nc(Nc2ccc(S(C)(=O)=O)cc2OC)ncc1Cl [Example 2, 5-Chloro-N2-(2-methoxy-4-(methylsulfonyl)phenyl)-N4-methylpyrimidine-2,4-diamine]
1	CNc1nc(Nc2cc(Cl)c(S(C)(=O)=O)cc2OC)ncc1C(F)(F)F [Example 20, N2-(5-Chloro-4-methanesulfonyl-2-methoxy-phenyl)-N4-methyl-5-trifluoromethyl-pyrimidine-2,4-diamine]
0.3	CNc1nc(Nc2cc(C)c(S(C)(=O)=O)cc2OC)ncc1C(F)(F)F [Example 23, N2-(4-Methanesulfonyl-2-methoxy-5-methyl-phenyl)-N4-methyl-5-trifluoromethyl-pyrimidine-2,4-diamine]

Source: patent publication US9145402B2, “Aminopyrimidine derivatives as LRRK2 modulators” (Genentech, Inc., priority 2011, dated 2015)
